Assays:
Assay type in all cases: cell-based
HER2/Neu protein = experiment: Her2 degradation assay; conditions: MCF7 cells, 16 h
Text: [drawing 219] wherein R^3′ is not alkynyl, which were disclosed in U.S. patent application Ser. No. 10/945,851 and PCT Application US04/31248. The pyrrolopyrimidine compounds specified in the EXAMPLE sections of the above patent applications carry either no substituent or a substituted alkyl group. […] A simple alkyl or a substituted alkyl at C-5 (ie R^3=alkyl or substituted alkyl) can only bring two-fold additional activity. Conversely, if C-5 is alkyne substituted, the potency increases approximately 10-20 fold. (See, Series A: compounds A, B, C and D below).
Many cancers are associated with the over expression Her2 protein. It has been shown that compounds able to diminish Her2 levels show good promise as anti-cancer agents.
MCF7 breast carcinoma cells (ATCC) were grown in Dulbecco's modified Eagle's medium (DMEM) containing 10% fetal bovine serum (FBS) and 10 mM HEPES, and plated in 24 well plates (50% confluent). […] Samples were analyzed using a FACSCalibur™ flow cytometer (Becton Dickinson, San Jose, Calif.) equipped with Argon-ion laser that emits 15 mW of 488 nm light for excitation of the PE fluorochrome. […] A fluorescence histogram was generated and the mean fluorescence intensity (MFI) of each sample was determined using Cellquest software. […] Percent degradation of Her2 was calculated as follows: % Her2 degraded=[(MFI untreated cells−MFI treated cells)/MFI untreated cell]×100. […]

[1] = test system: BT474 breast tumor cell line; experiment: MTS assay / secondary assay of killing tumor cells, BT474; conditions: Homo sapiens, BT-474
Procedure: (§1) The difference in potency index between alkynes and non-alkynes measured by a secondary assay is also striking. The secondary assay measures the efficiency of killing tumor cells. […] EC50 is defined as the amount of compound added to effect a 50% reduction in viable cell number. Selected compounds were tested on cells of MCF7 and BT474 breast tumor cell lines. […] TABLE 2 summarized the result of the assay.
(§2) 3-(4,5-dimethylthiazol-2-yl)-5-(3-carboxymethoxyphenyl)-2-(4-sulfophenyl)-2H-tetrazolium assays measure the cytotoxicity of geldanamycin derivatives. MTS (3-(4,5-dimethylthiazol-2-yl) -5-(3-carboxymethoxyphenyl)-2-(4-sulfophenyl)-2H-tetrazolium) is a tetrazolium dye that is converted to a formazan product by dehydrogenase enzymes of metabolically active cells (Corey, A. et al. “Use of an aqueous soluble tetrazolium/formazan assay for cell growth assays in culture,” Cancer Commun. 1991, 3, 207-212). Cells were seeded in 96 well plates at 2000 cells/well and allowed to adhere overnight in Dulbecco's modified Eagle's medium supplemented with 10% fetal bovine serum. The final culture volume was 100 μl. Viable cell number was determined by using the Celltiter 96 AQueous Non-radioactive Cell Proliferation Assay (Promega, Madison Wis.). The MTS/PMS (phenazine methosulfate) solution was mixed at a ratio of 20:1, and 20 μL was added per well to 100 μl of culture medium. After 2-4 hours, the formation of the formazan product was measured at 490 nm absorbance using a multiwell plate spectrophotometer. Background was determined by measuring the Abs 490 nm of cell culture medium and MTS-PMS in the absence of cells and was subtracted from all values. Percent viable cells was calculated as follows: % viable cells=(Abs at 490 nm treated cells/Abs at 490 nm untreated cells)×100

[2] = test system: MCF7 breast carcinoma cells; experiment: MTS assay / secondary assay of killing tumor cells, MCF7; conditions: for IC50: Homo sapiens, MCF7
Procedure: as §1, §2
The effect of selected compounds of the invention on MCF7 breast carcinoma cells according to the MTS assay is summarized in table 3. IC50 was defined as the concentration of the compound which gave rise to 50% reduction in viable cell number.

Q: How did the IC50 (HER2/Neu protein) turn out when `COc1c(C)cnc(Cn2cc(C#CCN(C(C)C)C(C)C)c3c(Cl)nc(N)nc32)c1C` [Example 5, 4-Chloro-5-(3-diisopropylamino-prop-1-ynyl)-7-(4-methoxy-3,5-dimethyl-pyridin-2-ylmethyl)-7H-pyrrolo[2,3-d]pyrimidin-2-ylamine] was run?
A: 55 nM

Q: What about the IC50 [1] of the same molecule?
A: 80 nM

Q: And the IC50 [2]?
A: 100 nM

Q: What does the source list for `COc1c(C)cnc(Cn2cc(C#CCCCNC(=O)OC(C)(C)C)c3c(Cl)nc(N)nc32)c1C` [Example 15, {5-[2-Amino-4-chloro-7-(4-methoxy-3,5-dimethyl-pyridin-2-ylmethyl)-7H-pyrrolo [2,3-d]pyrimidin-5-yl]-pent-4-ynyl}-carbamic acid tert-butyl ester]?
A: IC50 [1]: 1000 nM; IC50 [2]: 60 nM

Q: `COc1c(C)cnc(Cn2cc(C#CCCN3CCOCC3)c3c(Cl)nc(N)nc32)c1C` [Example 18] was tested. Which IC50 [1] did it give?
A: 1000 nM

Q: And the IC50 [2]?
A: 50 nM

Q: What does the source list for `COc1c(C)cnc(Cn2cc(C#CCCC(N)=O)c3c(Cl)nc(N)nc32)c1C` [Example 12, 5-[2-Amino-4-chloro-7-(4-methoxy-3,5-dimethyl-pyridin-2-ylmethyl)-7H-pyrrolo[2,3-d]pyrimidin-5-yl]-pent-4-ynoic acid amide]?
A: IC50 [1]: 20 nM; IC50 [2]: 30 nM

Q: `COc1c(C)cnc(Cn2cc(C#CCCN3C(=O)c4ccccc4C3=O)c3c(Cl)nc(N)nc32)c1C` [H] was tested. Which “potency index relative to 17-AAG” value ([2]; cell line not specified, MCF7 and BT474 tested) did it give?
A: more potent than 17-AAG

Q: Which results are given for `COc1c(C)cnc(Cn2cc(C#CCCCNC(C)(C)C)c3c(Cl)nc(N)nc32)c1C` [Example 21, 5-(5-tert-Butylamino-pent-1-ynyl)-4-chloro-7-(4-methoxy-3,5-dimethyl-pyridin-2-ylmethyl) -7H-pyrrolo[2,3-d]pyrimidin-2-ylamine]?
A: IC50 [1]: 30 nM; IC50 [2]: 230 nM

Q: Which results are given for `COc1c(C)cnc(Cn2cc(C#CCCCO)c3c(Cl)nc(N)nc32)c1C` [Example 3, 5-[2-Amino-4-chloro-7-(4-methoxy-3,5-dimethyl-pyridin-2-ylmethyl)-7H-pyrrolo[2,3-d]pyrimidin-5-yl]-pent-4-yn-1-ol]?
A: IC50 [1]: 8 nM; IC50 [2]: 13 nM

Q: For `COc1c(C)cnc(Cn2cc(C#CCCCN3C(=O)c4ccccc4C3=O)c3c(Cl)nc(N)nc32)c1C` [Example 17], which IC50 [1] is on record?
A: 100 nM

Q: And the IC50 [2]?
A: 10 nM

Q: Which results are given for `COc1c(C)cnc(Cn2cc(C#CCOC(=O)CN(C)C)c3c(Cl)nc(N)nc32)c1C` [Example 22, Dimethylamino-acetic acid 3-[2-amino-4-chloro-7-(4-methoxy-3,5-dimethyl-pyridin-2-ylmethyl)-7H-pyrrolo[2,3-d]pyrimidin-5-yl]-prop-2-ynyl ester]?
A: IC50 [1]: 20 nM; IC50 [2]: 200 nM

Q: What does the source list for `COc1c(C)cnc(Cn2cc(C#CCCNC(C)(C)C)c3c(Cl)nc(N)nc32)c1C` [Example 20, 5-(4-tert-Butylamino-but-1-ynyl)-4-chloro-7-(4-methoxy-3,5-dimethyl-pyridin-2-ylmethyl) -7H-pyrrolo[2,3-d]pyrimidin-2-ylamine]?
A: IC50 [1]: 23 nM; IC50 [2]: 130 nM

Q: `COc1c(C)cnc(Cn2cc(C#CCCCN3CCOCC3)c3c(Cl)nc(N)nc32)c1C` [Example 19] was tested. Which IC50 [1] did it give?
A: 1000 nM

Q: And the IC50 [2]?
A: 100 nM

Q: Which results are given for `COc1c(C)cnc(Cn2cc(C#CCCC(=O)N3CCN(C)CC3)c3c(Cl)nc(N)nc32)c1C` [Example 11]?
A: IC50 [1]: 20 nM; IC50 [2]: 100 nM

Q: With `CCN(CC)C(=O)CCC#Cc1cn(Cc2ncc(C)c(OC)c2C)c2nc(N)nc(Cl)c12` [Example 10] as the molecule, how does the IC50 [1] read?
A: 50 nM

Q: And the IC50 [2]?
A: 700 nM

Q: How did the IC50 [1] turn out when `COc1c(C)cnc(Cn2cc(C#CCCCCO)c3c(Cl)nc(N)nc32)c1C` [Example 7, 6-[2-Amino-4-chloro-7-(4-methoxy-3,5-dimethyl-pyridin-2-ylmethyl)-7H-pyrrolo[2,3-d]pyrimidin-5-yl]-hex-5-yn-1-ol] was run?
A: 20 nM

Q: What about the IC50 [2] of the same molecule?
A: 200 nM

Q: For `COc1c(C)cnc(Cn2cc(C#CCCCN)c3c(Cl)nc(N)nc32)c1C` [Example 16, 5-(5-Amino-pent-1-ynyl)-4-chloro-7-(4-methoxy-3,5-dimethyl-pyridin-2-ylmethyl)-7H-pyrrolo [2,3-d]pyrimidin-2-ylamine], which IC50 [1] is on record?
A: > 10000 nM

Q: What about the IC50 [2] of the same molecule?
A: 90 nM

Q: With `COc1c(C)cnc(Cn2cc(C#CCCO)c3c(Cl)nc(N)nc32)c1C` [Example 2, 4-[2-Amino-4-chloro-7-(4-methoxy-3,5-dimethyl-pyridin-2-ylmethyl)-7H-pyrrolo[2,3-d]pyrimidin-5-yl]-but-3-yn-1-ol] as the molecule, how does the IC50 [1] read?
A: 6 nM

Q: What about the IC50 [2] of the same molecule?
A: 13 nM

Q: With `COc1c(C)cnc(Cn2cc(C#CCO)c3c(Cl)nc(N)nc32)c1C` [Example 1, 3-[2-amino-4-chloro-7-(4-methoxy-3,5-dimethyl-pyridin-2-ylmethyl)-7H-pyrrolo [2,3-d]pyrimidin-5-yl]-prop-2-yn-1-ol] as the molecule, how does the IC50 (HER2/Neu protein) read?
A: 12 nM

Q: And the IC50 [1]?
A: 20 nM

Q: And the IC50 [2]?
A: 130 nM
